The source of these data is US20240390256A1, “A DEODORANT COMPOSITION” (priority 2021, published 2024).

The test concerns S. hominis ATCC 27844. In words: Malodour assay using lead acetate method (H2S formation by S. hominis, 96-well plate). The test is classed as cell-based. As to conditions: for (%) Malodour generated: bacterial control = 100; for % malodour generation as compared to pectin: malodour assay, carbohydrates at 2 wt. %. The method, then: The test organisms was grown on TSA (Tryptic Soya Agar) plates overnight (22±2 hr). The organism was not more than 3 passages removed from the original source. The cell number was adjusted by re-suspending it in a suitable amount of physiological saline sufficient to achieve the required cell number based on optical density of the cells. The optical density (OD at 620 nm) of the cells were standardized to the cell number for the test organism using a spectrophotometer. A minimum final suspension of 1.0×10^8 CFU/mL was achieved by adjusting the OD to 0.2 in saline for the malodour assay. A 1% lead acetate solution was made in distilled water. Whatmann filter paper (cut in the size that could be placed over the wells of a well plate) was dipped in the lead acetate solution. The excess solution was drained and allowed to dry in Laminar Air Flow for 30 minutes. Stock solutions of the actives were prepared for performing the assay. A 0.5% citrus pectin was prepared by weighing 0.05 g of pectin in 10 ml sterile distilled water under magnetic stirrer for 30 min. A 1:10 dilution of this stock was prepared in sterile distilled water to achieve a final stock of 0.05% citrus pectin to perform the assay. A 1% stock of niacinamide was prepared by weighing 0.1 g in 10 ml sterile distilled water. The malodour assay was adapted from the method of Moore et al, 2003 and modified into a 96 well plate format. 100 μl Tryptic Soy Broth (TSB) with 0.1% L-cysteine-HCl was added into the wells of the 96-well plate. 20 μl of 0.2 OD culture of S. hominis was then added into the wells. The actives were added from the stock solutions at required concentrations and made up the volume to 200 μl with addition of sterile distilled water. The assay was done in triplicates. The lead acetate paper was placed over the wells and the lid of the 96-well plate was closed and incubated at 37° C. incubator overnight. After the incubation time, the dark coloration of the lead acetate paper was observed. Visible blackening of lead acetate in the area over the well indicated the presence of H2S. The intensity of the colour was recorded using a reflectometer as L*a*b* values. The difference between the initial and final L*a*b* values ΔE, was used to quantify malodour formation. The percentage malodour was calculated from ΔE measured using the above assay for the various actives or combinations.

The mark [1] stands for this setting: Table 1, active wt % as given per example, S. hominis in TSB with 0.1% L-cysteine-HCl, 37° C. overnight, calculated from ΔE.
Setting [2] is: Table 2, comparative carbohydrates at 2 wt. %.

In the case of `NC(=O)c1cccnc1` [C, Niacinamide], the “(%) Malodour generated” value under setting [1] is on record as 89%.
Same read-out and setting: the result for `NC(=O)c1cccnc1` [D, Niacinamide] reads 71%.
For the compound `OC[C@H]1O[C@@](CO)(O[C@H]2O[C@H](CO)[C@@H](O)[C@H](O)[C@H]2O)[C@@H](O)[C@@H]1O` [F, Sucrose], the “(%) Malodour generated” value under setting [2] is listed as 100%. In addition, the “% malodour generation as compared to pectin” value (Table 2) was “higher”.
Consider `O=C[C@H](O)[C@@H](O)[C@@H](O)[C@H](O)CO` [J, Galactose], for which the “(%) Malodour generated” value under setting [2] stood at 90%. The “% malodour generation as compared to pectin” value (Table 2) is listed as “higher”.
